Experiments:
[1] = tested on: A549; test: MTT assay, A549; type: cell-based, human; conditions: lung adenocarcinoma, 48 h incubation
Method in brief: (§1)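 MTT viability after 48 h exposure to compounds at final 5–50 µmol/L; formazan in 10% SDS read at 540 nm, IC50 fitted by nonlinear regression from at least three independent experiments.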

[2] = tested on: MCF-10A; test: MTT assay, MCF-10A non-cancerous cells; type: cell-based, human; conditions: non-cancerous epithelial breast cells, 48 h incubation
Method in brief: (§2)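 Human MCF-10A breast epithelial and BJ-5ta dermal fibroblast cells seeded 24 h, then exposed to compounds at 5, 10, 20 and 50 µmol/L for 48 h at 37 °C. MTT with SDS solubilization, absorbance 540 nm. IC50 from nonlinear regression, ≥3 independent repeats.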

[3] = tested on: PATU; test: MTT assay, PATU 8902; type: cell-based, human; conditions: Homo sapiens, PaTu 8902, 48 h, pancreas adenocarcinoma, 48 h incubation
Method in brief: (§3)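 Cells (HeLa, HCT116 in RPMI 1640; A2058, PATU 8902 in DMEM; 10% FBS) were seeded at 5 × 10^3 to 10 × 10^3 per well, treated after 24 h with compound at 5, 10, 20 and 50 µmol/L for 48 h, then MTT-stained; formazan dissolved in 10% SDS, absorbance read at 540 nm.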

[4] = tested on: HCT116; test: MTT assay, HCT116; type: cell-based, human; conditions: colorectal adenocarcinoma, 48 h incubation
Method in brief: as §3

[5] = tested on: Hep G2; test: MTT assay, Hep G2; type: cell-based, human; conditions: hepatocellular carcinoma, 48 h incubation
Method in brief: as §1

[6] = tested on: HeLa; test: MTT assay, HeLa; type: cell-based, human; conditions: cervical adenocarcinoma, 48 h incubation
Method in brief: as §3

[7] = tested on: A2780; test: MTT assay, A2780; type: cell-based, human; conditions: Homo sapiens, A2780, 48 h, ovarian adenocarcinoma, 48 h incubation
Method in brief: as §1

[8] = tested on: A2058; test: MTT assay, A2058; type: cell-based; conditions: Homo sapiens, A2058, 48 h, human melanoma, 48 h incubation
Method in brief: as §3

[9] = tested on: Bj-5ta; test: MTT assay, BJ-5ta non-cancerous fibroblasts; type: cell-based, human; conditions: Homo sapiens, Fibroblast, 48 h, non-cancerous dermal fibroblasts, 48 h incubation
Method in brief: as §2

Row | IC50 ([1]; Homo sapiens, A549, 48 h) [µM] | IC50 ([4]; Homo sapiens, HCT-116, 48 h) [µM] | IC50 ([6]; Homo sapiens, HeLa, 48 h) [µM] | melting point | IC50 [7] [µM] | IC50 [4] [µM] | IC50 [6] [µM] | IC50 [1] [µM] | Structure (SMILES) | IC50 ([2]; Homo sapiens, MCF-10A, 48 h) [µM] | IC50 [3] [µM] | IC50 ([5]; Homo sapiens, HepG2, 48 h) [µM] | IC50 [8] [µM] | IC50 [9] [µM] | IC50 [2] [µM] | IC50 [5] [µM]
1 | > 50 | 25.1 ± 7.8 | 27.7 ± 4.6 | 219 to 220 °C (dec.) | > 50 | – | – | – | O=C(COc1ccc(/C=C2\SC(=O)N(Cc3cccc4cc5ccccc5nc34)C2=O)cc1)Nc1cccc(C(F)(F)F)c1 [Compound 8f, 2-(4-{[(5Z)-3-[(Acridin-4-yl)methyl]-2,4-dioxo-1,3-thiazolidin-5-ylidene]methyl}phenoxy)-N-[3-(trifluoromethyl)phenyl]acetamide] | > 50 | > 50 | > 50 | > 50 | > 50 | – | –
2 | > 50 | – | – | 293 to 294 °C | > 50 | > 50 | 20.1 ± 2.95 | – | O=C(COc1ccc(/C=C2\SC(=O)N(Cc3c4ccccc4nc4ccccc34)C2=O)cc1)Nc1ccc([N+](=O)[O-])cc1 [Compound 7d, 2-(4-{[(5Z)-3-[(Acridin-9-yl)methyl]-2,4-dioxo-1,3-thiazolidin-5-ylidene]methyl}phenoxy)-N-(4-nitrophenyl)acetamide] | > 50 | > 50 | > 50 | > 50 | > 50 | – | –
3 | > 50 | 9.9 ± 1.7 | 26.7 ± 3.8 | 217 to 218 °C | > 50 | – | – | – | COc1cc(/C=C2\SC(=O)N(Cc3cccc4cc5ccccc5nc34)C2=O)ccc1OCC(=O)Nc1ccccc1C(F)(F)F [Compound 13e, 2-(4-{[(5Z)-3-[(Acridin-4-yl)methyl]-2,4-dioxo-1,3-thiazolidin-5-ylidene]methyl}-2-methoxyphenoxy)-N-[2-(trifluoromethyl)phenyl]acetamide] | 14.9 ± 0.16 | > 50 | > 50 | 35.2 ± 2.87 | > 50 | – | –
4 | – | – | 24.3 ± 3.8 | 249 to 250 °C | > 50 | 37.6 ± 4.2 | – | > 50 | O=C(COc1ccc(/C=C2\SC(=O)N(Cc3c4ccccc4nc4ccccc34)C2=O)cc1)Nc1ccccc1 [Compound 7a, 2-(4-{[(5Z)-3-[(Acridin-9-yl)methyl]-2,4-dioxo-1,3-thiazolidin-5-ylidene]methyl}phenoxy)-N-phenylacetamide] | – | > 50 | > 50 | > 50 | > 50 | > 50 | –
5 | 31.1 ± 4.2 | – | – | 255 to 256 °C | > 50 | 14.3 ± 1.8 | 28.2 ± 3.7 | – | COc1cc(/C=C2\SC(=O)N(Cc3c4ccccc4nc4ccccc34)C2=O)ccc1OCC(=O)Nc1ccccc1C(F)(F)F [Compound 12e, 2-(4-{[(5Z)-3-[(Acridin-9-yl)methyl]-2,4-dioxo-1,3-thiazolidin-5-ylidene]methyl}-2-methoxyphenoxy)-N-[2-(trifluoromethyl)phenyl]acetamide] | > 50 | > 50 | > 50 | > 50 | > 50 | – | –
6 | > 50 | – | 19.9 ± 2.05 | 268 to 269 °C | > 50 | 15.1 ± 2 | – | – | COc1cc(/C=C2\SC(=O)N(Cc3c4ccccc4nc4ccccc34)C2=O)ccc1OCC(=O)Nc1cc(OC)c(OC)c(OC)c1 [Compound 12c, 2-(4-{[(5Z)-3-[(Acridin-9-yl)methyl]-2,4-dioxo-1,3-thiazolidin-5-ylidene]methyl}-2-methoxyphenoxy)-N-(3,4,5-trimethoxyphenyl)acetamide] | > 50 | > 50 | > 50 | > 50 | > 50 | – | –
7 | – | – | – | 228 to 230 °C (dec.) | > 50 | 23.1 ± 5.7 | 44.2 ± 4.1 | > 50 | COc1cc(/C=C2\SC(=O)N(Cc3cccc4cc5ccccc5nc34)C2=O)ccc1OCC(=O)Nc1cc(OC)c(OC)c(OC)c1 [Compound 13c, 2-(4-{[(5Z)-3-[(Acridin-4-yl)methyl]-2,4-dioxo-1,3-thiazolidin-5-ylidene]methyl}-2-methoxyphenoxy)-N-(3,4,5-trimethoxyphenyl)acetamide] | > 50 | > 50 | – | 42.5 ± 0.25 | > 50 | – | > 50
8 | > 50 | > 50 | 41.9 ± 5.7 | 213 to 214 °C | > 50 | – | – | – | COc1cc(/C=C2\SC(=O)N(Cc3cccc4cc5ccccc5nc34)C2=O)ccc1OCC(=O)Nc1ccccc1 [Compound 13a, 2-(4-{[(5Z)-3-[(Acridin-4-yl)methyl]-2,4-dioxo-1,3-thiazolidin-5-ylidene]methyl}-2-methoxyphenoxy)-N-phenylacetamide] | > 50 | > 50 | > 50 | 49.1 ± 0.85 | > 50 | – | –
9 | > 50 | – | – | 248 to 249 °C | > 50 | > 50 | 6.8 ± 2.4 | – | COc1cc(NC(=O)COc2ccc(/C=C3\SC(=O)N(Cc4c5ccccc5nc5ccccc45)C3=O)cc2)cc(OC)c1OC [Compound 7c, 2-(4-{[(5Z)-3-[(Acridin-9-yl)methyl]-2,4-dioxo-1,3-thiazolidin-5-ylidene]methyl}phenoxy)-N-(3,4,5-trimethoxyphenyl)acetamide] | – | > 50 | > 50 | > 50 | > 50 | 14.5 ± 2.5 | –
10 | > 50 | 26.9 ± 1.85 | – | 258 to 259 °C (dec.) | > 50 | – | 21.1 ± 7.2 | – | O=C(COc1ccc(/C=C2\SC(=O)N(Cc3cccc4cc5ccccc5nc34)C2=O)cc1)Nc1ccccc1 [Compound 8a, 2-(4-{[(5Z)-3-[(Acridin-4-yl)methyl]-2,4-dioxo-1,3-thiazolidin-5-ylidene]methyl}phenoxy)-N-phenylacetamide] | > 50 | > 50 | > 50 | > 50 | > 50 | – | –
11 | > 50 | – | 11.5 ± 3.3 | 269 to 270 °C | > 50 | > 50 | – | – | COc1cc(/C=C2\SC(=O)N(Cc3c4ccccc4nc4ccccc34)C2=O)ccc1OCC(=O)Nc1cccc(C(F)(F)F)c1 [Compound 12f, 2-(4-{[(5Z)-3-[(Acridin-9-yl)methyl]-2,4-dioxo-1,3-thiazolidin-5-ylidene]methyl}-2-methoxyphenoxy)-N-[3-(trifluoromethyl)phenyl]acetamide] | > 50 | > 50 | > 50 | > 50 | > 50 | – | –

— PMC11280325, “Design, Synthesis, and Characterization of Novel Thiazolidine-2,4-Dione-Acridine Hybrids as Antitumor Agents” (Molecules, 2024)
